The source of these data is paper PMC6078987, “Molecular insights into antibiotic resistance - how a binding protein traps albicidin” (Nature Communications, 2018).

For assay [1], the target named is AlbA. Details: method as in PMID 9493391. The note with it: read-out: previously reported Kd; cited from earlier work.
The target in assay [2] is DNA gyrase. Set-up: method as in PMID 17074789. The settings on record: read-out: half maximal inhibitory concentration (IC50); cited from earlier work.
For assay [3], the system named is Salmonella enteritidis. Set-up: method as in PMID 17074789, PMID 25504839. The note with it: cited from earlier work.
Assay [4] has as its target T1, GyrBA59 (Escherichia coli, UniProt P0AES4+P0AES6).
T1 construct: combining the full-length GyrB and a C-terminally truncated GyrA segment (59 kDa); a C-terminally truncated GyrA segment (59 kDa); 6x His (TEV-cleavable) (N, cleaved yes); made in house; host or cells: E. coli BL21 DE3, pET-28a(+)
The assay can be described thus: DNA cleavage assay. Type of assay: biochemical, E. coli. The settings on record: 5 nM – 5120 nM albicidin, pBR322, 1.4 mM ATP. Here is the method:
E. coli DNA gyrase cleavage assays were performed by incubating 250 ng of supercoiled pBR322 plasmid DNA (Inspiralis, Norwich, UK) with 25 nM of GyrBA59 protein in 20 µL reactions containing 35 mM Tris-HCl (pH 8.0), 24 mM KCl, 4 mM MgCl2, 2 mM DTT, 1.8 mM spermidine, 1.4 mM ATP, 6.5% (w/v) glycerol, and 0.1 mg mL^−1 bovine serum albumin in the presence or absence of various concentrations of albicidin (final concentration of 5% dimethyl sulfoxide (DMSO), incubation at 37 °C for 30 min). Linearized DNA was released by further incubation with 0.2% (w/v) SDS and 0.1 mg mL^−1 proteinase K (Promega, Madison, USA) at 37 °C for 30 min. The reaction was stopped by addition of 20 µL of reaction stop buffer (STEB buffer) (40% (w/v) sucrose, 100 mM Tris-HCl (pH 8.0), 10 mM EDTA, and 0.5 mg mL^−1 Bromophenol Blue) and precipitation using 30 µL of chloroform/isoamyl alcohol 24:1 (v:v). Samples were analyzed by electrophoresis in 1% w/v agarose gel containing 0.5 […] followed by photography under ultraviolet illumination.

For assay [5], the system named is K. oxytoca. Description: MIC assay, clinical isolates. The settings on record: Klebsiella oxytoca; four K. oxytoca strains. Type of assay: cell-based. How it is done: (§1) The MIC assay was performed by Antiinfectives Intelligence GmbH (Rheinbach, Germany) using internationally standardized protocols and employing clinical isolates of K. oxytoca, K. pneumoniae, R. ornithologica, P. aeruginosa, A. baumannii and E. cloacae.

Assay [6] has as its system R. ornithinolytica. Description: MIC assay, clinical isolates. Type of assay: cell-based. How it is done: as §1
The test system of assay [7] is P. aeruginosa. The assay can be described thus: MIC assay, clinical isolates. It is filed as cell-based. The note with it: Pseudomonas aeruginosa. How it is done:
as §1

Assay [8] relates to Acinetobacter baumanii. The assay can be described thus: MIC assay, clinical isolates. It is filed as cell-based. The settings on record: Acinetobacter baumannii. How it is done: as §1
Assay [9] deals with Enterobacter cloacae. The assay can be described thus: MIC assay, clinical isolates. Type of assay: cell-based. Here is the method:
as §1

The test system of assay [10] is Klebsiella pneumoniae. The assay can be described thus: MIC assay, clinical isolates. It is filed as cell-based. The note with it: seven Klebsiella pneumoniae strains. Here is the method:
as §1

The target of assay [11] is T2, AlbAS (Klebsiella oxytoca, UniProt Q8KRS7).
T2 sequence (Q8KRS7 1-221): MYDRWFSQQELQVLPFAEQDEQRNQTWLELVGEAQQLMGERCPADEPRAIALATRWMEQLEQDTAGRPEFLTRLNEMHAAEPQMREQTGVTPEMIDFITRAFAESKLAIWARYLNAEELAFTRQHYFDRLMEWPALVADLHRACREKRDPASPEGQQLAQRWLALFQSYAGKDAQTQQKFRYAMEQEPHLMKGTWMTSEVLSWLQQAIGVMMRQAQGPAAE
The assay can be described thus: CD-detected thermal unfolding of AlbAS. It is filed as binding. The settings on record: 1.5-fold ligand, 20 µM protein; AlbAS alone 66 °C. How it is done:
For determination of the melting temperature and information on protein-ligand stability, CD measurements were performed on a J-815 CD spectrometer (Jasco, Groß-Umstadt, Germany). Protein samples (2.0 mM for AlbAS and 0.2 mM for AlbAL) were saturated with 1.5-fold albicidin and diluted to a protein concentration of 20 μM in order to ensure a final DMSO content of only 0.05% for AlbAS and 0.5% for AlbAL. A volume of 250 μL of the reaction mixture was transferred into a quartz cuvette with 1 mm path length. Six far-UV spectra were accumulated in a wavelength range of 195–300 nm (203–300 nm for AlbAL) at three different temperatures (10, 21, and 90 °C) with a scanning speed of 50 nm s^−1. For evaluation of the spectra the measured buffer blank (50 mM sodium hydrogen phosphate and 100 mM NaCl, pH 6.8) was subtracted from the averaged spectra. The temperature curves were recorded from 10–90 °C in 0.5 °C min^−1 steps while monitoring the ellipticity at 215 nm (218 nm for ALbAL). […] The melting temperatures of AlbAS, AlbAS–albicidin, AlbAS–compound 5, AlbAS–compound 7, AlbAL, and AlbAL–albicidin were determined by nonlinear regression of the measured data using Eq. (1). […] The Tm was thus determined by fitting the second transition representing the stabilized domain/species. […]

In brackets after ≈: the same amount, converted by molar mass.

T1 sequence (P0AES4 whole entry, looked up, other chains not shown, the tested form may be a part): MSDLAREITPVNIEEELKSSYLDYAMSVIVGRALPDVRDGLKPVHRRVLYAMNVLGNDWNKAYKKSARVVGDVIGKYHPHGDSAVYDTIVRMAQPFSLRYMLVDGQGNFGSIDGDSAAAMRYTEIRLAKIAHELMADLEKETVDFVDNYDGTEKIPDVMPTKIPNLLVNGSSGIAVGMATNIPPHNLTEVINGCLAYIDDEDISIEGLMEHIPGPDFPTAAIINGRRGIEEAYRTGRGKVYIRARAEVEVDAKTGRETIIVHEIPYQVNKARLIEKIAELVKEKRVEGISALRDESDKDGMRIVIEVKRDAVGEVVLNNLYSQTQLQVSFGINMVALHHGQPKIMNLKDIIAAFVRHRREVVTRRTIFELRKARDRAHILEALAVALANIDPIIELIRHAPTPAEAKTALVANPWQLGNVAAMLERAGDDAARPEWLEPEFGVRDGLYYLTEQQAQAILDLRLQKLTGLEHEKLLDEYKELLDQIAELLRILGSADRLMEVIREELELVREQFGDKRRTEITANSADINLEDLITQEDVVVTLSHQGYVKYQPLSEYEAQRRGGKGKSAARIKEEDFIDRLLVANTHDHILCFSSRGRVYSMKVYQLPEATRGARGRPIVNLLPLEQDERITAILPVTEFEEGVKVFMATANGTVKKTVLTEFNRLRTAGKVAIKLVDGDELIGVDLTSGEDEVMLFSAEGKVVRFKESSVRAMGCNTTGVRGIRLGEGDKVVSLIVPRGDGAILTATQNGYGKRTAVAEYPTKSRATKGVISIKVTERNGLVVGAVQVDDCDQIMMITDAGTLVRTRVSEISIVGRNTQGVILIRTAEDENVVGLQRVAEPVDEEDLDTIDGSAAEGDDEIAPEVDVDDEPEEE

As for `COc1c(NC(=O)c2ccc(NC(=O)c3ccc(NC(=O)[C@H](CC#N)NC(=O)c4ccc(NC(=O)/C(C)=C/c5ccc(O)cc5)cc4)cc3)c(OC)c2O)ccc(C(=O)O)c1O` [albicidin], the Kd in assay [1] was 64 nM. Further, the IC50 in assay [2] was 40 nM. For the same compound, the MIC in assay [3] was 0.5 µg/mL (≈ 0.593 µM); in assay [5], no less than 64 µg/mL; in assay [6], no less than 64 µg/mL; in assay [7], no less than 64 µg/mL; in assay [8], no less than 64 µg/mL; in assay [9], no less than 64 µg/mL. Besides, the MIC in assay [10] is no less than 64 µg/mL. The “stabilization of DNA cleavage complex (in words)” value in [4] is given as “stabilizing the cleavage complex”. Besides, the “melting temperature Tm of AlbAS upon ligand binding” value in [11] was found to be 81 °C.

The term Kd denotes the free concentration of one partner at which half of the binding sites on the other are occupied at equilibrium, for simple one-to-one binding. As a reminder, the MIC is the lowest concentration found to suppress growth.
